According to US8546424B2, “Acetylene derivatives of 5-phenyl-pyrazolopyridine, preparation thereof, and therapeutic use thereof” (Sanofi, priority 2009, dated 2013):

What was measured:
[1] = biological target: T1, mouse Nurr1 receptor (Mus musculus, UniProt Q06219); assay: in vitro activity on N2A cells (8NBRE-luciferase reporter); type: cell-based; conditions: N2A-8NBRE cells, 24 hours incubation
T1 construct: endogenously expressing the mouse Nurr1 receptor; host or cells: Neuro-2A (N2A) mouse neuroblastoma cells stably transfected with 8NBRE-luciferase
T1 sequence (Q06219 whole entry): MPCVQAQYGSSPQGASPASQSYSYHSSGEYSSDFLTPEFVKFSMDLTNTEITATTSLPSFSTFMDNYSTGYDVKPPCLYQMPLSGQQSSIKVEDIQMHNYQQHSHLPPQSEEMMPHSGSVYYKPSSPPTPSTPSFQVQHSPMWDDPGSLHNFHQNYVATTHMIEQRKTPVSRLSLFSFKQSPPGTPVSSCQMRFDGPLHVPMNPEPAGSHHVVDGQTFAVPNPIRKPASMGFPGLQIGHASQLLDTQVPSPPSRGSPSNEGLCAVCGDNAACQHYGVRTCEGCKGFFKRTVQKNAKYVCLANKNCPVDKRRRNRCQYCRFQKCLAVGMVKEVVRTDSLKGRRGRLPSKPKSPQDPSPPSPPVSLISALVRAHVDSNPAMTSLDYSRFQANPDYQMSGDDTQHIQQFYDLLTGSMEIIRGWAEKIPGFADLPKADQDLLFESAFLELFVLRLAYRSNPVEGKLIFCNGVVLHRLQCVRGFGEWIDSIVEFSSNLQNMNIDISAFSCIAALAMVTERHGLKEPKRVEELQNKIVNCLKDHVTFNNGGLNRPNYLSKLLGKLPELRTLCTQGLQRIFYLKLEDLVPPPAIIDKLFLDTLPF
Procedure: The compounds according to the invention have formed the subject of pharmacological assays which make it possible to determine their modulatory effect on NOT. Evaluation of the in vitro Activity on N2A Cells
The activity of the compounds according to the invention was evaluated on a cell line (N2A) endogenously expressing the mouse Nurr1 receptor and stably transfected with the NOT binding response element (NBRE) coupled to the luciferase reporter gene. The assays were carried out according to the procedure described below.
The Neuro-2A cell line comes from a standard commercial source (ATCC). The Neuro-2A clone was obtained, from a spontaneous tumour originating from an A albino mouse strain, by R. J Klebe et al. This Neuro-2A line is subsequently stably transfected with 8NBRE-luciferase. The N2A-8NBRE cells are cultured until confluence in 75 cm^2 culture flasks containing DMEM supplemented with 10% of foetal calf serum, 4.5 g/l of glucose and 0.4 mg/ml of geneticin. After a week of culture, the cells are recovered with 0.25% trypsin for 30 seconds and then resuspended in DMEM without phenol red, containing 4.5 g/l of glucose and 10% of Hyclone delipidized serum, and deposited into transparent-bottom 96-well white plates. […] The plates are subsequently measured in a luminescence counter for microplates after having been sealed with an adhesive film. […]

| SMILES | melting point [°C] | EC50 [1] [nM] |
| --- | --- | --- |
| C#CC(O)c1cccc(-c2ccn3nc(-c4ccc(Cl)cc4)cc3c2)c1 (racemic) [Compound 1, 1-{3-[2-(4-Chlorophenyl)pyrazolo[1,5-a]pyridin-5-yl]phenyl}prop-2-yn-1-ol] | 195 to 197 | – |
| C#CC(O)c1cccc(-c2ccn3nc(-c4ccc(F)cc4)cc3c2)c1 (racemic) [Compound 2, 1-{3-[2-(4-Fluorophenyl)pyrazolo[1,5-a]pyridin-5-yl]phenyl}prop-2-yn-1-ol] | 192 to 194 | 3 |
| CC#CC(O)c1cccc(-c2ccn3nc(-c4ccc(F)cc4)cc3c2)c1 (racemic) [Compound 3, 1-{3-[2-(4-Fluorophenyl)pyrazolo[1,5-a]pyridin-5-yl]phenyl}but-2-yn-1-ol] | 164 to 166 | – |
| C#CC(C)(O)c1cccc(-c2ccn3nc(-c4ccc(F)cc4)cc3c2)c1 (racemic) [Compound 4, 2-{3-[2-(4-Fluorophenyl)pyrazolo[1,5-a]pyridin-5-yl]phenyl}but-3-yn-2-ol] | 215 to 217 | – |
| C#CC(O)c1ccccc1-c1ccn2nc(-c3ccc(F)cc3)cc2c1 (racemic) [Compound 5, 1-{2-[2-(4-Fluorophenyl)pyrazolo[1,5-a]pyridin-5-yl]phenyl}prop-2-yn-1-ol] | 104 to 106 | – |
| C#CC(O)c1c(F)ccc(-c2ccn3nc(-c4ccc(F)cc4)cc3c2)c1F (racemic) [Compound 6, 1-{2,6-Difluoro-3-[2-(4-fluorophenyl)pyrazolo[1,5-a]pyridin-5-yl]-phenyl}prop-2-yn-1-ol] | 151 to 153 | – |
| C#CC(O)c1cccc(-c2ccn3nc(-c4ccccc4F)cc3c2)c1 (racemic) [Compound 7, 1-{3-[2-(2-Fluorophenyl)pyrazolo[1,5-a]pyridin-5-yl]phenyl}prop-2-yn-1-ol] | 157 to 159 | – |
| C#CC(O)c1cccc(-c2ccn3nc(-c4ccc(C)cc4)cc3c2)c1 (racemic) [Compound 8, 1-[3-(2-{p-Tolyl}pyrazolo[1,5-a]pyridin-5-yl)phenyl]prop-2-yn-1-ol] | 183 to 185 | – |
| C#CC(O)c1cccc(-c2ccn3nc(-c4ccc(F)cc4)cc3c2)c1 (single isomer, unassigned; (+)) [Compound 10, (+)-1-{3-[2-(4-Fluorophenyl)pyrazolo[1,5-a]pyridin-5-yl]phenyl}prop-2-yn-1-ol] | 139 to 141 | – |
| C#CC(C)(O)c1cccc(-c2ccn3nc(-c4ccc(F)cc4)cc3c2)c1 (single isomer, unassigned; (+)) [Compound 12, (+)-2-{3-[2-(4-Fluorophenyl)pyrazolo[1,5-a]pyridin-5-yl]phenyl}but-3-yn-2-ol] | 126 to 128 | – |
| C#CC(O)c1cccc(-c2ccn3nc(-c4ccc(F)cc4)cc3c2)c1 (single isomer, unassigned; (-)) [Compound 9, (−)-1-{3-[2-(4-Fluorophenyl)pyrazolo[1,5-a]pyridin-5-yl]phenyl}prop-2-yn-1-ol] | 147 to 149 | – |
| C#CC(C)(O)c1cccc(-c2ccn3nc(-c4ccc(F)cc4)cc3c2)c1 (single isomer, unassigned; (-)) [Compound 11, (−)-2-{3-[2-(4-Fluorophenyl)pyrazolo[1,5-a]pyridin-5-yl]phenyl}but-3-yn-2-ol] | 122 to 124 | – |
